Tested on: MV-4-11 cells
Experiment: Gene expression microarray analysis (Affymetrix PrimeView) and GSEA
Assay type: cell-based, human
Design: RFU PODN (11730768_x_at) / Fold change /veh PODN (11730768_x_at) / RFU LINC00158 (11744669_a_at) / Fold change /veh LINC00158 (11744669_a_at) / RFU DUSP10 (11751237_a_at) / Fold change /veh DUSP10 (11751237_a_at) / RFU ID3 (11757404_x_at) / Fold change /veh ID3 (11757404_x_at) / RFU PLEKHG5 (11737974_s_at) / Fold change /veh PLEKHG5 (11737974_s_at) / RFU LRRC4B (11730491_at) / Fold change /veh LRRC4B (11730491_at) / RFU GIMAP4 (11747438_a_at) / Fold change /veh GIMAP4 (11747438_a_at) / RFU KRT8 (11758183_x_at) / Fold change /veh KRT8 (11758183_x_at) / RFU CNN1 (11734310_a_at) / Fold change /veh CNN1 (11734310_a_at) / RFU VPS37D (11726825_at) / Fold change /veh VPS37D (11726825_at) / RFU C10orf10 (11716522_x_at) / Fold change /veh C10orf10 (11716522_x_at) / RFU KIR2DL2 /// KIR2DL4 /// KIR2DL5A /// KIR2DL5B /// KIR2DS1 /// KIR2DS2 /// KIR2DS3 /// KIR2DS4 /// KIR3DL3 /// KIR3DL3 /// KIR3DS1 (11738374_at) / Fold change /veh KIR2DL2 /// KIR2DL4 /// KIR2DL5A /// KIR2DL5B /// KIR2DS1 /// KIR2DS2 /// KIR2DS3 /// KIR2DS4 /// KIR3DL3 /// KIR3DL3 /// KIR3DS1 (11738374_at) / RFU C1QL1 (11718748_at) / Fold change /veh C1QL1 (11718748_at) / RFU TMPRSS4 (11747572_a_at) / Fold change /veh TMPRSS4 (11747572_a_at) / RFU HAMP (11756126_x_at) / Fold change /veh HAMP (11756126_x_at) / RFU RNFT2 (11725882_a_at) / Fold change /veh RNFT2 (11725882_a_at) / RFU NR4A2 (11747474_a_at) / Fold change /veh NR4A2 (11747474_a_at) / RFU ABCC12 (11746883_a_at) / Fold change /veh ABCC12 (11746883_a_at) / RFU TMEM136 (11760407_x_at) / Fold change /veh TMEM136 (11760407_x_at) / RFU CLDN22 /// WWC2 (11732394_at) / Fold change /veh CLDN22 /// WWC2 (11732394_at) / RFU HLA-DPB1 (11760878_x_at) / Fold change /veh HLA-DPB1 (11760878_x_at) / RFU SPINT1 (11716480_a_at) / Fold change /veh SPINT1 (11716480_a_at) / RFU GAP43 (11754022_s_at) / Fold change /veh GAP43 (11754022_s_at) / RFU A4GNT (11735810_at) / Fold change /veh A4GNT (11735810_at) / RFU PRB3 (11715151_x_at) / Fold change /veh PRB3 (11715151_x_at) / RFU TUBB4B (11761932_at) / Fold change /veh TUBB4B (11761932_at) / RFU CAPN14 (11732068_a_at) / Fold change /veh CAPN14 (11732068_a_at) / RFU TMCC2 (11721928_a_at) / Fold change /veh TMCC2 (11721928_a_at) / RFU IRGQ (11745062_a_at) / Fold change /veh IRGQ (11745062_a_at) / RFU FAM174B (11720279_a_at) / Fold change /veh FAM174B (11720279_a_at) / RFU TMPRSS4 (11748680_a_at) / Fold change /veh TMPRSS4 (11748680_a_at) / RFU FAM212B (11763350_a_at) / Fold change /veh FAM212B (11763350_a_at) / RFU PLEKHG5 (11743358_a_at) / Fold change /veh PLEKHG5 (11743358_a_at) / RFU ZSCAN30 (11745921_a_at) / Fold change /veh ZSCAN30 (11745921_a_at) / RFU CMKLR1 (11741424_a_at) / Fold change /veh CMKLR1 (11741424_a_at) / RFU LOC101060620 /// MAPK8IP1 (11723275_at) / Fold change /veh LOC101060620 /// MAPK8IP1 (11723275_at) / RFU SPTSSB (11747773_x_at) / Fold change /veh SPTSSB (11747773_x_at) / RFU PRSS12 (11739890_at) / Fold change /veh PRSS12 (11739890_at) / RFU BIN1 (11741810_x_at) / Fold change /veh BIN1 (11741810_x_at) / RFU WNT11 (11732464_a_at) / Fold change /veh WNT11 (11732464_a_at) / RFU C10orf10 (11716521_a_at) / Fold change /veh C10orf10 (11716521_a_at) / RFU C5orf56 (11738089_at) / Fold change /veh C5orf56 (11738089_at) / RFU CYB561 (11721691_x_at) / Fold change /veh CYB561 (11721691_x_at) / RFU ANKRD19P (11752326_a_at) / Fold change /veh ANKRD19P (11752326_a_at) / RFU OR2T12 /// OR2T33 /// OR2T8 (11738714_s_at) / Fold change /veh OR2T12 /// OR2T33 /// OR2T8 (11738714_s_at) / RFU VCAN (11748164_a_at) / Fold change /veh VCAN (11748164_a_at) / RFU JSRP1 (11732532_at) / Fold change /veh JSRP1 (11732532_at) / RFU KRTAP10-11 (11738290_x_at) / Fold change /veh KRTAP10-11 (11738290_x_at) / RFU MYO3A (11730013_a_at) / Fold change /veh MYO3A (11730013_a_at) / RFU EBF3 (11725865_a_at) / Fold change /veh EBF3 (11725865_a_at) / RFU CAMK2N1 (11719241_x_at) / Fold change /veh CAMK2N1 (11719241_x_at) / RFU C5orf56 (11738088_a_at) / Fold change /veh C5orf56 (11738088_a_at) / RFU OLFML3 (11715873_a_at) / Fold change /veh OLFML3 (11715873_a_at) / RFU LOC100653217 /// NTM (11731650_a_at) / Fold change /veh LOC100653217 /// NTM (11731650_a_at) / RFU MAPK11 (11762145_a_at) / Fold change /veh MAPK11 (11762145_a_at) / RFU FIZ1 (11724087_x_at) / Fold change /veh FIZ1 (11724087_x_at) / RFU OASL (11726364_x_at) / Fold change /veh OASL (11726364_x_at) / RFU SOX15 (11748057_x_at) / Fold change /veh SOX15 (11748057_x_at) / RFU CD79A (11719716_a_at) / Fold change /veh CD79A (11719716_a_at) / RFU HIST1H1D (11736915_at) / Fold change /veh HIST1H1D (11736915_at) / RFU CASKIN2 (11723855_a_at) / Fold change /veh CASKIN2 (11723855_a_at) / RFU LOC730098 (11760151_x_at) / Fold change /veh LOC730098 (11760151_x_at) / RFU OR4N2 (11742367_at) / Fold change /veh OR4N2 (11742367_at) / RFU PRRT2 (11749266_a_at) / Fold change /veh PRRT2 (11749266_a_at) / RFU SNX32 (11753110_a_at) / Fold change /veh SNX32 (11753110_a_at) / RFU CDHR5 (11726645_a_at) / Fold change /veh CDHR5 (11726645_a_at) / RFU RCAN1 (11760418_a_at) / Fold change /veh RCAN1 (11760418_a_at) / RFU FAM167A (11723789_a_at) / Fold change /veh FAM167A (11723789_a_at) / RFU FAM26E (11764081_at) / Fold change /veh FAM26E (11764081_at) / RFU ISYNA1 (11749810_s_at) / Fold change /veh ISYNA1 (11749810_s_at) / RFU ACY1 (11761880_at) / Fold change /veh ACY1 (11761880_at) / RFU 11764098_at / Fold change /veh 11764098_at / RFU SAMD14 (11745864_x_at) / Fold change /veh SAMD14 (11745864_x_at) / RFU NPB (11741838_a_at) / Fold change /veh NPB (11741838_a_at) / RFU TMPRSS6 (11731388_a_at) / Fold change /veh TMPRSS6 (11731388_a_at) / RFU KRTAP10-2 (11738614_at) / Fold change /veh KRTAP10-2 (11738614_at) / RFU ARHGAP8 /// PRR5-ARHGAP8 (11727945_x_at) / Fold change /veh ARHGAP8 /// PRR5-ARHGAP8 (11727945_x_at) / RFU KRTAP5-7 /// NADSYN1 (11734609_at) / Fold change /veh KRTAP5-7 /// NADSYN1 (11734609_at) / RFU RASL12 (11751679_a_at) / Fold change /veh RASL12 (11751679_a_at) / RFU CDKN2B (11736163_a_at) / Fold change /veh CDKN2B (11736163_a_at) / RFU PRF1 (11729649_at) / Fold change /veh PRF1 (11729649_at) / RFU, ZNF638 /// ZNF638-IT1 / Fold change vs veh, ZNF638 /// ZNF638-IT1 / RFU, PANK3 / Fold change vs veh, PANK3 / RFU, SH3YL1 / Fold change vs veh, SH3YL1 / RFU, ZEB2 / Fold change vs veh, ZEB2 / RFU, NRIP1 / Fold change vs veh, NRIP1 / RFU, PTTG1IP / Fold change vs veh, PTTG1IP / RFU, CAPN2 / Fold change vs veh, CAPN2 / RFU, MED14 / Fold change vs veh, MED14 / RFU, SNORA58 / Fold change vs veh, SNORA58 / RFU, C1orf63 / Fold change vs veh, C1orf63 / RFU, LRRFIP1 / Fold change vs veh, LRRFIP1 / RFU, NDUFAF7 / Fold change vs veh, NDUFAF7 / RFU, SLC12A2 / Fold change vs veh, SLC12A2 / RFU, IBTK / Fold change vs veh, IBTK / RFU, ESF1 / Fold change vs veh, ESF1 / Fold change vs veh, TMEM50B / RFU, TAOK1 / Fold change vs veh, TAOK1 / RFU, ACBD3 / Fold change vs veh, ACBD3 / RFU, TMA16 / Fold change vs veh, TMA16 / RFU, RWDD3 / Fold change vs veh, RWDD3 / RFU, BCAT1 / Fold change vs veh, BCAT1 / RFU, EDEM3 / Fold change vs veh, EDEM3 / RFU, TMEM33 / Fold change vs veh, TMEM33 / RFU, WDR75 / Fold change vs veh, WDR75 / RFU, AHCTF1 / Fold change vs veh, AHCTF1 / RFU, TFRC / Fold change vs veh, TFRC / RFU, ZDHHC17 / Fold change vs veh, ZDHHC17 / RFU, NOM1 / Fold change vs veh, NOM1 / RFU, ARL8B / Fold change vs veh, ARL8B / RFU, ZBTB11 / Fold change vs veh, ZBTB11 / RFU, TAMM41 / Fold change vs veh, TAMM41 / RFU, KIAA1704 /// LOC100996395 / Fold change vs veh, KIAA1704 /// LOC100996395 / RFU, ING1 / Fold change vs veh, ING1 / RFU, TRMT61B / Fold change vs veh, TRMT61B / RFU, FUBP3 / Fold change vs veh, FUBP3 / RFU, TP53 / Fold change vs veh, TP53 / RFU, TNKS2 / Fold change vs veh, TNKS2 / RFU, ZFP14 / Fold change vs veh, ZFP14 / RFU, ACTR2 / Fold change vs veh, ACTR2 / RFU, PPP3R1 / Fold change vs veh, PPP3R1 / RFU, PIK3R1 / Fold change vs veh, PIK3R1 / RFU, HNRNPA1 / Fold change vs veh, HNRNPA1 / RFU, RNF170 / Fold change vs veh, RNF170 / RFU, ZNF28 / Fold change vs veh, ZNF28 / RFU, RNGTT / Fold change vs veh, RNGTT / RFU, OGT / Fold change vs veh, OGT / RFU, BRD1 / Fold change vs veh, BRD1 / RFU, MARS / Fold change vs veh, MARS / RFU, ZNF655 / Fold change vs veh, ZNF655 / RFU, FAHD1 / Fold change vs veh, FAHD1 / RFU, BDP1 / Fold change vs veh, BDP1 / RFU, LRRCC1 / Fold change vs veh, LRRCC1 / RFU, ARID1A / Fold change vs veh, ARID1A / RFU, ZNF146 / Fold change vs veh, ZNF146 / RFU, ZNF330 / Fold change vs veh, ZNF330 / RFU, GPN3 / Fold change vs veh, GPN3 / RFU, C9orf123 / Fold change vs veh, C9orf123 / RFU, N4BP2L2 / Fold change vs veh, N4BP2L2 / RFU, ARFIP1 / Fold change vs veh, ARFIP1 / RFU, FAM179B / Fold change vs veh, FAM179B / RFU, BCL10 / Fold change vs veh, BCL10 / RFU, UHRF1BP1L / Fold change vs veh, UHRF1BP1L / RFU, BET1 / Fold change vs veh, BET1 / RFU, CNOT2 / Fold change vs veh, CNOT2 / RFU, ZNF268 / Fold change vs veh, ZNF268 / Fold change vs veh, ZNF507 / RFU, DGCR2 / Fold change vs veh, DGCR2 / RFU, WDSUB1 / Fold change vs veh, WDSUB1 / Fold change vs veh, HSP90B1 /// MIR3652 / RFU, ADSS / Fold change vs veh, ADSS / RFU, GK / Fold change vs veh, GK / RFU, ZNF148 / Fold change vs veh, ZNF148 / RFU, TAF9 / Fold change vs veh, TAF9 / RFU, SLC1A5 / Fold change vs veh, SLC1A5 / RFU, SLMO2 / Fold change vs veh, SLMO2 / RFU, ABCC4 / Fold change vs veh, ABCC4 / RFU, LOC101060439 /// RAP1B / Fold change vs veh, LOC101060439 /// RAP1B / RFU, RFX7 / Fold change vs veh, RFX7 / RFU, GTPBP10 / Fold change vs veh, GTPBP10 / RFU, CNEP1R1 / Fold change vs veh, CNEP1R1 / RFU, BIVM-ERCC5 /// ERCC5 / Fold change vs veh, BIVM-ERCC5 /// ERCC5 / RFU, ILF3 / Fold change vs veh, ILF3 / RFU 11762660_at / Fold change /veh 11762660_at / RFU VCAN (11757783_s_at) / Fold change /veh VCAN (11757783_s_at) / RFU DDX43 (11728927_at) / Fold change /veh DDX43 (11728927_at) / RFU KRT8 (11758188_x_at) / Fold change /veh KRT8 (11758188_x_at) / RFU NKD1 (11759106_at) / Fold change /veh NKD1 (11759106_at) / RFU SRD5A1 (11742802_a_at) / Fold change /veh SRD5A1 (11742802_a_at) / RFU TPSAB1 /// TPSB2 (11721975_s_at) / Fold change /veh TPSAB1 /// TPSB2 (11721975_s_at) / RFU GSTM3 (11746129_a_at) / Fold change /veh GSTM3 (11746129_a_at) / RFU IL23R (11737362_x_at) / Fold change /veh IL23R (11737362_x_at) / RFU TMEM51 (11727254_a_at) / Fold change /veh TMEM51 (11727254_a_at) / RFU PIWIL2 (11732686_x_at) / Fold change /veh PIWIL2 (11732686_x_at) / RFU ORM1 (11744905_x_at) / Fold change /veh ORM1 (11744905_x_at) / RFU CCDC152 (11743942_at) / Fold change /veh CCDC152 (11743942_at) / RFU ECM1 (11717891_a_at) / Fold change /veh ECM1 (11717891_a_at) / RFU IL23R (11748794_a_at) / Fold change /veh IL23R (11748794_a_at) / RFU TNFAIP8L3 (11732012_x_at) / Fold change /veh TNFAIP8L3 (11732012_x_at) / RFU MBOAT4 (11741988_at) / Fold change /veh MBOAT4 (11741988_at) / RFU 11764193_at / Fold change /veh 11764193_at / RFU TMEM53 (11763286_at) / Fold change /veh TMEM53 (11763286_at) / RFU MAGEB2 (11727129_at) / Fold change /veh MAGEB2 (11727129_at) / RFU TMEM200A (11744735_a_at) / Fold change /veh TMEM200A (11744735_a_at) / RFU CCDC152 (11751479_a_at) / Fold change /veh CCDC152 (11751479_a_at) / RFU FAM211A (11726209_a_at) / Fold change /veh FAM211A (11726209_a_at) / RFU RGS16 (11746705_a_at) / Fold change /veh RGS16 (11746705_a_at) / RFU VCAN (11755009_s_at) / Fold change /veh VCAN (11755009_s_at) / RFU RHOB (11743442_s_at) / Fold change /veh RHOB (11743442_s_at) / RFU RGS16 (11720943_a_at) / Fold change /veh RGS16 (11720943_a_at) / RFU RGS16 (11720944_at) / Fold change /veh RGS16 (11720944_at) / RFU, VPS4B / Fold change vs veh, VPS4B / RFU, CREB1 / Fold change vs veh, CREB1 / RFU, DNAJC13 / Fold change vs veh, DNAJC13 / RFU, GNAQ / Fold change vs veh, GNAQ / RFU, CDK5R1 / Fold change vs veh, CDK5R1 / RFU, ZRANB3 / Fold change vs veh, ZRANB3 / RFU, CUL4A / Fold change vs veh, CUL4A / RFU, CCNY / Fold change vs veh, CCNY / RFU, UFL1 / Fold change vs veh, UFL1 / RFU, COG3 / Fold change vs veh, COG3 / RFU, DIAPH2 / Fold change vs veh, DIAPH2 / RFU, SKA2 / Fold change vs veh, SKA2 / RFU, AFF3 / Fold change vs veh, AFF3 / RFU, LMF1 / Fold change vs veh, LMF1 / RFU, IPO11 / Fold change vs veh, IPO11 / RFU, DFFB / Fold change vs veh, DFFB / RFU, FOXP1 / Fold change vs veh, FOXP1 / RFU, CARD8 / Fold change vs veh, CARD8 / RFU, STRN3 / Fold change vs veh, STRN3 / RFU, ADK / Fold change vs veh, ADK / RFU, RASSF2 / Fold change vs veh, RASSF2 / RFU, WIPF1 / Fold change vs veh, WIPF1 / RFU, LARP1B / Fold change vs veh, LARP1B / RFU, RASA1 / Fold change vs veh, RASA1 / RFU, RB1 / Fold change vs veh, RB1 / RFU, PPFIA1 / Fold change vs veh, PPFIA1 / RFU, MAT2A / Fold change vs veh, MAT2A / RFU, CCT5 / Fold change vs veh, CCT5 / RFU, WDR92 / Fold change vs veh, WDR92 / RFU, CUX1 / Fold change vs veh, CUX1 / RFU, TTC7A / Fold change vs veh, TTC7A / RFU, TMEM135 / Fold change vs veh, TMEM135 / RFU, DEPTOR / Fold change vs veh, DEPTOR / RFU, CPM / Fold change vs veh, CPM / RFU, DNAJB6 / Fold change vs veh, DNAJB6 / RFU, CACNA2D3 / Fold change vs veh, CACNA2D3 / RFU, DTX4 / Fold change vs veh, DTX4 / RFU, TFCP2 / Fold change vs veh, TFCP2 / RFU, GMCL1 /// GMCL1P1 / Fold change vs veh, GMCL1 /// GMCL1P1 / RFU, AEBP2 / Fold change vs veh, AEBP2 / RFU, SNHG1 /// SNORD22 /// SNORD25 /// SNORD26 /// SNORD27 /// SNORD28 /// SNORD29 /// SNORD31 / Fold change vs veh, SNHG1 /// SNORD22 /// SNORD25 /// SNORD26 /// SNORD27 /// SNORD28 /// SNORD29 /// SNORD31 / Fold change (Aza/veh), C12orf56 (ProbeSet 11735607_a_at) / Fold change (ACY-1035/veh), C12orf56 (ProbeSet 11735607_a_at) / Fold change (Aza/veh), FGFR1OP (ProbeSet 11751329_s_at) / Fold change (ACY-1035/veh), FGFR1OP (ProbeSet 11751329_s_at) / Fold change (Aza/veh), VPS36 (ProbeSet 11739960_a_at) / Fold change (ACY-1035/veh), VPS36 (ProbeSet 11739960_a_at) / RFU SYPL1 (11715823_x_at) / Fold change /veh SYPL1 (11715823_x_at) / RFU IGFBP7 (11715501_s_at) / Fold change /veh IGFBP7 (11715501_s_at) / RFU REEP3 (11722064_at) / Fold change /veh REEP3 (11722064_at) / RFU IGLL1 (11728026_x_at) / Fold change /veh IGLL1 (11728026_x_at): dose or concentration left out as unconfirmed
Conditions: MV-4-11 cells, 48 hours

Nc1ncn([C@@H]2O[C@H](CO)[C@@H](O)[C@H]2O)c(=O)n1 [azacitidine]
RFU RGS16 (11746705_a_at): 77.87 RFU
